Reference: US8540983B2, “Debriding composition from bromelain and methods of production thereof” (MediWound Ltd., priority 2004, dated 2013)

System: Debrase esterolytic activity
Assay: Esterolytic activity of Debrase (CLN substrate) and its inhibition by bromelain HPLC fractions
Assay type: biochemical, Ananas comosus
Details: Debrase + 1 mM Iodoacetamide, pH 4.6
Description: Bromelain powder (2.5 g) was suspended in 10 ml of 0.1M potassium phosphate buffer pH 6.1 saturated with phenyl mercury acetate for 10 min. After centrifugation for 10 min (3500 rpm), one ml of the supernatant was applied to gel filtration chromatography on a HiLoad 16/60 Superdex 75 HPLC preparation grade column, equilibrated and eluted with the same buffer. Fractions of 5 ml were collected 30 minutes after sample application. For each of the eluted fractions, three parameters were measured: (i) absorbance at 280 nm (A280); (ii) esterolytic activity; and (iii) inhibition of Debrase esterolytic activity.
The esterolytic activity of the bromelain fractions was assayed spectrophotometrically at pH 4.6 using the chromogenic substrate p-nitrophenyl Na-benzyloxycarbonyl-L-lysinate (CLN) as follows:
One milliliter of sodium acetated buffer (10 mM) containing 0.1 M KCl and 1 mM L-cysteine, pH 4.6 was placed in a plastic cuvette at 25° C. One hundred μl of the eluted fraction (at a concentration of 2.5 mg/ml) were added. The solution was incubated for 2 min and then 50 μl of CLN solution (2.5 mM in acetonitrile 10% water) were added. The cuvette was mixed and the increase in absorbance at 317 nm was monitored for 5 minutes. The spontaneous hydrolysis of the substrate was monitored in the presence of buffer only instead of the eluted fractions.

SMILES: NC(=O)CI [Iodoacetamide]
- % Inhibition: 37.0%
- Proteolytic activity (esterolytic activity of Debrase): 593
